The results in this text go back to patent US20050267030A1, “Use of deltaPKC peptides for modulation of reactive oxygen species” (priority 2004, published 2005).

Test [1] deals with rat vascular smooth muscle cells. Description: Production of reactive oxygen species (superoxide) in vitro, loss of tempoamine signal by electron spin resonance. As to conditions: FIG. 2. Type of test: cell-based. How it is done:
Example 1 details a study where inhibitors and activators of δPKC were administered to rat vascular smooth muscle cells in vitro. Cells were incubated in presence of (1) the agonist Tat-conjugated peptide ψδRACK (SEQ ID NO:5); (2) phorbol 12-myristate 13-acetate (PMA); or (3) the antagonist Tat-conjugated peptide δV1-1 (SEQ ID NO:3) plus PMA. A control cell sample was left untreated. Tempoamine ((2,2,6,6-tetramethyl-1-piperidi-nyloxy-4-amine)) was added to each culture and the loss of tempoamine signal was measured by electron spin resonance to measure superoxide production.
PMA, a non-isozyme specific activator of PKC, stimulated a 3-4 fold increase in ROS in the cells. […] Inhibition of this PKC isoform caused a decrease in PMA-stimulated ROS production.
Rat vascular smooth muscle cells were harvested from Zucker lean aortas by enzymatic digestion and cultured in Dulbecco's modified eagle's medium with 10% fetal bovine serum and penicillin/streptomycin under standard tissue culture conditions. The cells were incubated in the presence tempoamine ((2,2,6,6-tetramethyl-1-piperidi-nyloxy4-amine)) (100 μM) and in the presence of (1) the agonist Tat-conjugated peptide ψδRACK (10 μM); (2) phorbol 12-myristate 13-acetate (PMA, 500 ng/mL); or (3) the antagonist Tat-conjugated peptide δV1-1 (10 μM) plus PMA (500 ng/mL). A control cell sample was left untreated. The loss of tempoamine signal was measured by electron spin resonance to measure superoxide production.

For test [2], the system named is Zucker obese rats (fa/fa). Description: ROS (superoxide) production in aorta tissue homogenates of Zucker rats, electron spin resonance. In kind it is in vivo, rat. As to conditions: Zucker obese rats treated, versus Zucker lean control, FIG. 3A. How it is done: Tissue homogenates from the aortas of Zucker obese rats and of Zucker lean (Fa/fa) rats were prepared and analyzed for superoxide production using electron spin resonance with a tempomaine probe.

The next test deals with δPKC. Description: Translocation of δPKC in cells incubated with insulin, Western blot of cytosol and membrane fractions. Type of test: cell-based, rat. As to conditions: bovine insulin 100 nM, up to 24 hours, semi-quantitative from Western blot, FIG. 4B. How it is done:
Example 3 describes a study conducted to examine to role of PKC isozymes, and in particular δPKC, in vascular fibrosis, which is accelerated during the insulin-resistant, pre-diabetic state in animals. In this study, rat vascular smooth muscle cells were incubated with bovine insulin. Translocation of PKC isozymes was assessed by Western blot analysis of the cystosolic and membrane (particulate) fractions of the cells. The subcellular localization of various PKC isozymes was assessed by […] by probing the blot with isozyme specific antibodies, such as anti-δPKC, anti-αPKC, and anti-ε PKC, etc. […]
Rat vascular smooth muscle cells passages three through seven were prepared as described in Example 1 B. The cells were incubated with bovine insulin (100 nM) for time periods of up to 24 hours. Activation of various PKC isozymes was analyzed by harvesting the cells and separating the protein into cytosolic and membrane (particulate) fractions and examining both fractions by Western blot using anti-δPKC, anti-αPKC, and anti-ε PKC for the presence of different PKC isoforms. The activity of the isoform was assessed as amount of PKC in the membrane fraction divided by the total amount of protein in both fractions (cytosol and membrane), normalized to control.

The subject of the next test is TGF-β1. Kind of test: TGF-β1 gene expression in rat vascular smooth muscle cells, TaqMan real time PCR. In kind it is cell-based. On the procedure:
(§1) In another study, described in Example 4, the gene transcriptional effects of insulin and the selective inhibition of PKC isoforms was examined using real-time polymerase chain reaction (TaqMan® PCR). In vitro cells were incubated with insulin and in the presence or absence of a δPKC inhibitor, δV1-1 peptide. The expression of TGF-β and core binding factor α-1 (Cbf α-1) were monitored using TaqMan® real time PCR. Rat vascular smooth muscle cells passages three through seven were prepared as describe in Example 1B. The cells were incubated with insulin (100 nm, SourceLife Technologies) or with the δPKC inhibitor peptide δV1-1, prepared as described in Example 1A. RNA isolation and purification were performed as described in Example 2 and TaqMan® real time PCR was used to analyze the relative quantity TGF-β1 and core binding factor α-1 (Cbf α-1). PCR primers and probes were obtained commercially from Applied Biosystems, Inc. and the PCR was performed on an Applied Biosystems ABI Prism 7700.
For orientation: Quantitative PCR measures a nucleic acid by following its amplification.

Another test relates to Cbfa-1. Description: Cbfa-1 gene expression in rat vascular smooth muscle cells, TaqMan real time PCR. As to conditions: cells incubated with Tat-conjugated peptide versus untreated control, FIG. 5C. Type of test: cell-based. How it is done:
as §1

Ends that are not written are not given here.

Turning to “MRAAEDPM (not fully specified; also: Tat conjugated; listed as Rattus norvegicus) [ψδRACK, δPKC agonist peptide, amino acids 74-81 of δPKC]”, in test [1] (Tat-conjugated peptide 10 μM, tempoamine 100 μM, versus untreated control), the “production of ROS” value is on record as “increased production of ROS”.

For `O=C1CSC(=O)N1` [TZD1], the “ROS production in aorta homogenates” value in test [2] is “brought the ROS production down to control levels”.

Consider “insulin: bovine insulin incubated with rat vascular smooth muscle cells”, for which the “relative δPKC activity (membrane fraction / total, normalized to control)” value with δPKC was “about 1.7”. Besides, the “normalized TGF-β expression” value with TGF-β1 (cells incubated with insulin (100 nm) versus untreated control, FIG. 5A) is “did not appear to stimulate”.

Take “SFNSYELGSL (not fully specified; also: Tat conjugated; listed as Rattus norvegicus) [δV1-1, δPKC antagonist peptide, amino acids 8-17 of δPKC]”: the TGF-β1 expression entry in the test on TGF-β1 (cells incubated with Tat-conjugated peptide versus untreated control, FIG. 5B) is listed as “inhibited”. Further, the Cbfa-1 gene expression entry in the test on Cbfa-1 was “inhibited”. Further, the “ROS production stimulated by PMA” value in test [1] (Tat-conjugated peptide 10 μM co-incubated with PMA 500 ng/mL) is given as “effective to reverse or inhibit a significant part of the ROS production stimulated by PMA”.

For `CCCCCCCCCCCCCC(=O)O[C@@H]1[C@@H](C)[C@@]2(O)[C@@H](C=C(CO)C[C@]3(O)C(=O)C(C)=C[C@@H]23)[C@@H]2C(C)(C)[C@]12OC(C)=O` [PMA, phorbol 12-myristate 13-acetate, reference compound], the “increase in ROS in the cells” value in test [1] (PMA 500 ng/mL, tempoamine 100 μM) is 3-4 fold.
